Experiments:
Type in all cases: biochemical
[1] = target: T1, cathepsin K (Homo sapiens, UniProt P43235); experiment: Inhibitory activity assay against cathepsin K (enzyme assay); settings: Z-Phe-Arg-AMC 10 μM, enzyme 1 nM, pH 5.5, 30 minutes
T1 sequence (P43235 115-329): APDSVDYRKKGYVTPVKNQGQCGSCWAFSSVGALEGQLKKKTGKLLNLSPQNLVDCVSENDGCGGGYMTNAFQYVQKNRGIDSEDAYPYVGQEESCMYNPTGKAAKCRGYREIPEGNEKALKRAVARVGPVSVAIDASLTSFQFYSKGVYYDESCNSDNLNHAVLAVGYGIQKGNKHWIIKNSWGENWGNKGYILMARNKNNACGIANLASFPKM
Description: In order to measure the enzyme activity of cathepsin K, a buffer solution (pH 5.5) consisting of 50 mM 2-(N-morpholino)ethanesulfonic acid (MES), 2 mM dithiothreitol (DTT), 2.5 mM ethylenediaminetetraacetic acid (EDTA), 0.01% Triton X-100, and 10% dimethyl sulfoxide (DMSO) was prepared. The substrate, the test material, and the enzyme were mixed in the buffer solution in a predetermined concentration. The Z-Phe-Arg-AMC substrate was used in the final concentration of 10 μM. The test material was used in the final concentrations of 10.0 μM, 3.33 μM, 1.11 μM, 0.370 μM, 0.123 μM, 0.0412 μM, 0.0137 μM, 0.00457 μM, 0.00152 μM, and 0.000508 μM, respectively. The cathepsin K enzyme was used in the final concentration of 1 nM. The final volume of the enzyme reaction solution was 10 μL. After reacting the mixture of substrate, test material, and enzyme for 30 minutes, the enzyme activity was measured with the Synergy Neo (Biotek) microplate reader at an absorption wavelength of 355 nm and an emission wavelength of 460 nm. IC50 values were determined using 4-parameter logistic curve fit program of GraphPad Prism.

[2] = target: cathepsin B (Homo sapiens, UniProt P07858); experiment: Inhibitory activity assay against cathepsin B (enzyme assay); settings: Z-Arg-Arg-AMC 40 μM, enzyme 1 nM, pH 6.0, 90 minutes
Description: In order to measure the enzyme activity of cathepsin B, a buffer solution (pH 6.0) consisting of 50 mM MES, 5 mM DTT, 2.5 mM EDTA, 0.005% Polysorbate 20, and 10% DMSO was prepared. The substrate, the test material, and the enzyme were mixed in the buffer solution in a predetermined concentration. The Z-Arg-Arg-AMC substrate was used in the final concentration of 40 μM. The test material was used in the final concentrations of 10.0 μM, 3.33 μM, 1.11 μM, 0.370 μM, 0.123 μM, 0.0412 μM, 0.0137 μM, 0.00457 μM, 0.00152 μM, and 0.000508 μM, respectively. The cathepsin B enzyme was used in the final concentration of 1 nM. The final volume of the enzyme reaction solution was 10 μL. After reacting the mixture of substrate, test material, and enzyme for 90 minutes, the enzyme activity was measured with the EnVision (Perkin Elmer) microplate reader at an absorption wavelength of 340 nm and an emission wavelength of 460 nm. IC50 values were determined using 4-parameter logistic curve fit program of GraphPad Prism.

[3] = target: cathepsin L (Homo sapiens, UniProt P07711); experiment: Inhibitory activity assay against cathepsin L (enzyme assay); settings: Z-Phe-Arg-AMC 2 μM, enzyme 3 nM, pH 5.5, 30 minutes
Sequence of cathepsin L (P07711 114-333, species assumed): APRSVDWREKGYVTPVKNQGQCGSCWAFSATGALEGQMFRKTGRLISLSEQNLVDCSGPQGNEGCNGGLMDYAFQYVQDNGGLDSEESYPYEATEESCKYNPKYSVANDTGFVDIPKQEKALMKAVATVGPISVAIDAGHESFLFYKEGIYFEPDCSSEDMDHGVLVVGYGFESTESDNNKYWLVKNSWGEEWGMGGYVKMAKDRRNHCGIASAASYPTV
Description: In order to measure the enzyme activity of cathepsin L, a buffer solution (pH 5.5) consisting of 50 mM MES, 2.5 mM DTT, 2.5 mM EDTA, 0.005% Polysorbate 20, and 10% DMSO was prepared. The substrate, the test material, and the enzyme were mixed in the buffer solution in a predetermined concentration. The Z-Phe-Arg-AMC substrate was used in the final concentration of 2 μM. The test material was used in the final concentrations of 10.0 μM, 3.33 μM, 1.11 μM, 0.370 μM, 0.123 μM, 0.0412 μM, 0.0137 μM, 0.00457 μM, 0.00152 μM, and 0.000508 μM, respectively. The cathepsin L enzyme was used in the final concentration of 3 nM. The final volume of the enzyme reaction solution was 10 μL. After reacting the mixture of substrate, test material, and enzyme for 30 minutes, the enzyme activity was measured with the EnVision (Perkin Elmer) microplate reader at an absorption wavelength of 340 nm and an emission wavelength of 460 nm. IC50 values were determined using 4-parameter logistic curve fit program of GraphPad Prism.

[4] = target: cathepsin S (Homo sapiens, UniProt P25774); experiment: Inhibitory activity assay against cathepsin S (enzyme assay); settings: Z-Phe-Arg-AMC 70 μM, enzyme 3 nM, pH 6.5, 45 minutes
Sequence of cathepsin S (P25774 115-331, species assumed): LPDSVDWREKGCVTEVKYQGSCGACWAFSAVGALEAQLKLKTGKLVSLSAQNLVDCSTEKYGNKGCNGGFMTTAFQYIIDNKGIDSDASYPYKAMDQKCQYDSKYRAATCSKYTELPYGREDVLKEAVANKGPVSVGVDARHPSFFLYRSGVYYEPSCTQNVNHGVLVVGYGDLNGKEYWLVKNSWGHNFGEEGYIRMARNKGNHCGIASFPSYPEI
Description: In order to measure the enzyme activity of cathepsin S, a buffer solution (pH 6.5) consisting of 50 mM MES, 2.5 mM DTT, 1.0 mM EDTA, 0.001% bovine serum albumin (BSA), and 10% DMSO was prepared. The substrate, the test material, and the enzyme were mixed in the buffer solution in a predetermined concentration. The Z-Phe-Arg-AMC substrate was used in the final concentration of 70 μM. The test material was used in the final concentrations of 10.0 μM, 3.33 μM, 1.11 μM, 0.370 μM, 0.123 μM, 0.0412 μM, 0.0137 μM, 0.00457 μM, 0.00152 μM, and 0.000508 μM, respectively. The cathepsin S enzyme was used in the final concentration of 3 nM. The final volume of the enzyme reaction solution was 10 μL.
After reacting the mixture of substrate, test material, and enzyme for 45 minutes, the enzyme activity was measured with the EnVision (Perkin Elmer) microplate reader at an absorption wavelength of 340 nm and an emission wavelength of 460 nm. IC50 values were determined using 4-parameter logistic curve fit program of GraphPad Prism.

SMILES | IC50 [1] | IC50 [2] | IC50 [3] | IC50 [4]
CS(=O)(=O)c1ccc(-c2ccc(COC(=O)NC3(c4ccnc(C#N)n4)CCCC3)cc2)cc1 [Example 29, (4′-(methylsulfonyl)-[1,1′-biphenyl]-4-yl)methyl (1-(2-cyanopyrimidin-4-yl)cyclopentyl)carbamate] | 1570 nM | > 10000 nM | > 10000 nM | > 10000 nM
CS(=O)(=O)c1ccc(-c2cccc(COC(=O)NC3(c4ccnc(C#N)n4)CCCC3)c2)cc1 [Example 30, (4′-(methylsulfonyl)-[1,1′-biphenyl]-3-yl)methyl (1-(2-cyanopyrimidin-4-yl)cyclopentyl)carbamate] | 355 nM | > 10000 nM | > 10000 nM | 9450 nM
N#Cc1nccc(C2(NC(=O)OCc3ccc(-c4ccc(N5CCOCC5)cc4)cc3)CCCC2)n1 [Example 31, (4′-morpholino-[1,1′-biphenyl]-4-yl)methyl (1-(2-cyanopyrimidin-4-yl)cyclopentyl)carbamate] | 934 nM | > 10000 nM | > 10000 nM | > 10000 nM
N#Cc1nccc(C2(NC(=O)OCc3ccc(-c4ccc(F)nc4)cc3)CCCC2)n1 [Example 33, 4-(6-fluoropyridin-3-yl)benzyl (1-(2-cyanopyrimidin-4-yl)cyclopentyl)carbamate] | 1620 nM | > 10000 nM | > 10000 nM | > 10000 nM
N#Cc1nccc(C2(NC(=O)OCc3cccc(-c4ccc(F)nc4)c3)CCCC2)n1 [Example 35, 3-(6-fluoropyridin-3-yl)benzyl (1-(2-cyanopyrimidin-4-yl)cyclopentyl)carbamate] | 492 nM | > 10000 nM | > 10000 nM | > 10000 nM
Cc1cccc(NC(=O)NC2(c3ccnc(C#N)n3)CCCC2)c1 [Example 38, 1-(1-(2-cyanopyrimidin-4-yl)cyclopentyl)-3-(meta-tolyl)urea] | 69.6 nM | > 10000 nM | 8060 nM | > 10000 nM
N#Cc1nccc(C2(NC(=O)NCc3ccccc3F)CCCC2)n1 [Example 40, 1-(1-(2-cyanopyrimidin-4-yl)cyclopentyl)-3-(2-fluorobenzyl)urea] | 93.3 nM | > 10000 nM | 9230 nM | > 10000 nM
N#Cc1nccc(C2(NC(=O)NCc3ccc4c(c3)OCO4)CCCC2)n1 [Example 43, 1-(benzo[d][1,3]dioxol-5-ylmethyl)-3-(1-(2-cyanopyrimidin-4-yl)cyclopentyl)urea] | 462 nM | > 10000 nM | > 10000 nM | > 10000 nM
Cc1ccc(CNC(=O)NC2(c3ccnc(C#N)n3)CCCC2)cc1 [Example 48, 1-(1-(2-cyanopyrimidin-4-yl)cyclopentyl)-3-(4-methylbenzyl)urea] | 49.6 nM | > 10000 nM | > 10000 nM | > 10000 nM
N#Cc1nccc(C2(NC(=O)NCc3ccc(F)cc3)CCCC2)n1 [Example 54, 1-(1-(2-cyanopyrimidin-4-yl)cyclopentyl)-3-(4-fluorobenzyl)urea] | 76 nM | > 10000 nM | > 10000 nM | > 10000 nM
N#Cc1nccc(C2(NC(=O)NCc3ccccc3C(F)(F)F)CCCC2)n1 [Example 56, 1-(1-(2-cyanopyrimidin-4-yl)cyclopentyl)-3-(2-(trifluoromethyl)benzyl)urea] | 101 nM | > 10000 nM | > 10000 nM | > 10000 nM

Compounds with a lower IC50 [1], results first:

IC50 [1] | IC50 [2] | IC50 [3] | IC50 [4] | SMILES
35.8 nM | > 10000 nM | 8780 nM | > 10000 nM | N#Cc1nccc(C2(NC(=O)OCc3ccccc3Cl)CCCCC2)n1 [Example 28, 2-chlorobenzyl (1-(2-cyanopyrimidin-4-yl)cyclohexyl)carbamate]
31.9 nM | > 10000 nM | > 10000 nM | 7350 nM | Cn1ncc2ccc(-c3cccc(COC(=O)NC4(c5ccnc(C#N)n5)CCCC4)c3)cc21 [Example 36, 3-(1-methyl-1H-indazol-6-yl)benzyl (1-(2-cyanopyrimidin-4-yl)cyclopentyl)carbamate]
39.9 nM | > 10000 nM | 8180 nM | > 10000 nM | N#Cc1nccc(C2(NC(=O)Nc3ccccc3)CCCC2)n1 [Example 41, 1-(1-(2-cyanopyrimidin-4-yl)cyclopentyl)-3-phenylurea]
31.2 nM | > 10000 nM | 7540 nM | > 10000 nM | N#Cc1nccc(C2(NC(=O)NCc3ccccc3)CCCC2)n1 [Example 42, 1-benzyl-3-(1-(2-cyanopyrimidin-4-yl)cyclopentyl)urea]
18.5 nM | > 10000 nM | > 10000 nM | > 10000 nM | N#Cc1nccc(C2(NC(=O)Nc3ccc(Oc4ccccc4)cc3)CCCC2)n1 [Example 44, 1-(1-(2-cyanopyrimidin-4-yl)cyclopentyl)-3-(4-phenoxyphenyl)urea]
13.2 nM | > 10000 nM | 5970 nM | > 10000 nM | Cc1ccccc1CNC(=O)NC1(c2ccnc(C#N)n2)CCCC1 [Example 46, 1-(1-(2-cyanopyrimidin-4-yl)cyclopentyl)-3-(2-methylbenzyl)urea]
4.3 nM | > 10000 nM | 2670 nM | > 10000 nM | Cc1ccc(C)c(NC(=O)NC2(c3ccnc(C#N)n3)CCCC2)c1 [Example 50, 1-(1-(2-cyanopyrimidin-4-yl)cyclopentyl)-3-(2,5-dimethylphenyl)urea]
38.8 nM | > 10000 nM | 4170 nM | > 10000 nM | CC(NC(=O)NC1(c2ccnc(C#N)n2)CCCC1)c1ccccc1 (stereo not drawn) [Example 51, 1-(1-(2-cyanopyrimidin-4-yl)cyclopentyl)-3-(1-phenylethyl)urea]
19.5 nM | 5660 nM | > 10000 nM | > 10000 nM | N#Cc1nccc(C2(NC(=O)NCc3cccc4ccccc34)CCCC2)n1 [Example 55, 1-(1-(2-cyanopyrimidin-4-yl)cyclopentyl)-3-(naphthalen-1-ylmethyl)urea]
21.6 nM | 8780 nM | > 10000 nM | > 10000 nM | N#Cc1nccc(C2(NC(=O)Nc3cccc(C(F)(F)F)c3)CCCC2)n1 [Example 60, 1-(1-(2-cyanopyrimidin-4-yl)cyclopentyl)-3-(3-(trifluoromethyl)phenyl)urea]

From patent US11299478B2, “2-cyanopyrimidin-4-yl carbamate or urea derivative or salt thereof, and pharmaceutical composition including same” (HANLIM PHARMACEUTICAL CO., LTD., priority 2018, dated 2022)
